Source: patent US20260217732A1, “WRN INHIBITOR” (SUZHOU PUHE BIOPHARMA CO., LTD., priority 2022, published 2026)
Where two headings read alike, the source gives them in different places.

What was measured:
[1] = target: T1, WRN enzyme (Homo sapiens, UniProt Q14191); assay: WRN helicase hydrolysis (unwinding) of double-stranded DNA, fluorescence assay; format: biochemical; conditions: 30 min pre-incubation, 60 min reaction
T1 construct: 10 μL (2×) of WRN enzyme solution was added
Experimental: • The molecules of the present disclosure were tested for their activities on the WRN helicase hydrolysis of double-stranded DNA (Table 1).
A working solution to be tested and a buffer were prepared. The compound to be tested was dissolved in DMSO and subjected to 4× dilution (with 10 μM final concentration as the starting concentration). 0.2 μL of the solution of the compound to be tested was added to the 384-well plate and 10 μL (2×) of WRN enzyme solution was added. The solution was incubated in the dark for 30 minutes. Then, 10 μL of a substrate detection solution containing double-stranded DNA was added to initiate the reaction (the DNA has a length of 19 bp, and labeled with TAMRA and BHQ2 at 3′ and 5′-ends, respectively). The solution was incubated at room temperature for 60 minutes. The inhibitory activities (IC50) against WRN enzyme were calculated based on the change of Ex530/Em590 in the blank group (DMSO) and the compound group.

[2] = tested on: SW48 colorectal cancer cells; assay: 2D antiproliferation on MSI-H SW48 cells, CTG, 5 days; format: cell-based; conditions: for IC50 / inhibition at 38.15 pM / inhibition at 0.000152588 µM / inhibition at 0.000610352 µM / inhibition at 0.00976562 µM / inhibition at 0.0390625 µM / inhibition at 0.15625 µM / inhibition at 0.625 µM / inhibition at […] / inhibition at 10 µM / inhibition at 0.00244141 µM: Homo sapiens; for IC50: 120 h, SW48 MSI-H, 5 days; for inhibition at 38.15 pM: SW48, 0.038146973 nM; for inhibition at 0.000152588 µM: SW48, 0.152587891 nM; for inhibition at 0.000610352 µM: SW48, 0.610351563 nM; for inhibition at 0.00976562 µM: SW48, 9.765625 nM; for inhibition at 0.0390625 µM: SW48, 39.0625 nM; for inhibition at 0.15625 µM: SW48, 156.25 nM; for inhibition at 0.625 µM: SW48, 625 nM; for inhibition at […]: SW48, 2500 nM; for inhibition at 10 µM: SW48, 10000 nM; for inhibition at 0.00244141 µM: SW48, 2.44140625 nM
Experimental: The molecules of the present disclosure were tested for their anti-proliferative activity on MSI-H tumor cells.
SW48 colorectal cancer cells with MSI were cultured in a RMI1640 medium containing 10% FBS and 1% penicillin-streptomycin, and the mixture was cultured in a 37° C., 5% CO2 incubator. 40 μL of cell suspension was added to each well of a 384-well microplate. […] of compounds with different concentrations were added to each well using Echo, and the mixtures were cultured in a 37° C., 5% CO2 incubator for 5 days. 40 μL of CTG solution (Promega, Cat No. G7573) was added to each well and incubated in a 37° C., 5% CO2 incubator in the dark for 30 minutes. The luminescence value was read using an Envision multi-function microplate reader (Perkin Elmer, catalog number Envision 2104). The optical signal is proportional to the amount of ATP in the system, while the ATP content directly characterizes the number of viable cells in the system.

[3] = tested on: HT-29 colorectal cancer cells; assay: 2D antiproliferation on MSS HT-29 cells, CTG, 5 days; format: cell-based; conditions: Homo sapiens, 120 h, HT-29 MSS
Experimental: The molecules of the invention were tested for their anti-proliferative activities on MSS tumor cells.
HT-29 colorectal cancer cells with MSS were cultured in a McCoy's 5A medium containing 10% FBS and 1% penicillin-streptomycin in a 37° C., 5% CO2 constant temperature incubator. 40 μL of cell suspension was added to each well of a 384-well microplate. […] of compounds with different concentrations were added to each well using Echo. The mixtures were cultured in a 37° C., 5% CO2 constant temperature incubator for 5 days. 40 μL of CTG solution (Promega, Cat No. G7573) was added to each well, and the mixture was incubated in a 37° C., 5% CO2 constant temperature incubator for 30 minutes in the dark. The luminescence value was read using an Envision multi-function microplate reader (Perkin Elmer, catalog number Envision 2104). The optical signal is proportional to the amount of ATP in the system, while the ATP content directly characterizes the number of viable cells in the system.

[4] = tested on: SW48 (MSI-H) colorectal cancer tumor cells; assay: In vivo efficacy, SW48 xenograft in nude mice; design: species or system BALB/c nude mice; conditions: QD, oral; for TGI: 21 days; for Tumor Volume D 1: day 1; for Tumor volume D 21: day 21
Experimental: In vivo efficacy experiment in BALB/C nude mice. Details are as follows:
SW48 (MSI-H) colorectal cancer tumor cells were cultured (in an L15 medium with 10% fetal bovine serum), and inoculated into 6-8 week old female BALB/c nude mice (with body weight of about 20 g). All the mice were inoculated subcutaneously. The mice were raised in an SPF-grade experimental environment, and all the mice were free to take commercially certified standard diets. When the tumors grew to an average volume of about 160 mm^3 in mice, the test compound was orally administered daily. […] The tumor volume was measured with a two-dimensional caliper three times a week, and the animals were weighed every day. […] The volume calculation formula is: V=1/2a*b^2, where a represents the long diameter of the tumor and b represents the short diameter of the tumor.

[5] = read-out: Average Value/Inhibition Rate
[6] = read-out: Test 1/Inhibition Rate
[7] = read-out: Test 2/Inhibition Rate

T1 sequence (Q14191 whole entry): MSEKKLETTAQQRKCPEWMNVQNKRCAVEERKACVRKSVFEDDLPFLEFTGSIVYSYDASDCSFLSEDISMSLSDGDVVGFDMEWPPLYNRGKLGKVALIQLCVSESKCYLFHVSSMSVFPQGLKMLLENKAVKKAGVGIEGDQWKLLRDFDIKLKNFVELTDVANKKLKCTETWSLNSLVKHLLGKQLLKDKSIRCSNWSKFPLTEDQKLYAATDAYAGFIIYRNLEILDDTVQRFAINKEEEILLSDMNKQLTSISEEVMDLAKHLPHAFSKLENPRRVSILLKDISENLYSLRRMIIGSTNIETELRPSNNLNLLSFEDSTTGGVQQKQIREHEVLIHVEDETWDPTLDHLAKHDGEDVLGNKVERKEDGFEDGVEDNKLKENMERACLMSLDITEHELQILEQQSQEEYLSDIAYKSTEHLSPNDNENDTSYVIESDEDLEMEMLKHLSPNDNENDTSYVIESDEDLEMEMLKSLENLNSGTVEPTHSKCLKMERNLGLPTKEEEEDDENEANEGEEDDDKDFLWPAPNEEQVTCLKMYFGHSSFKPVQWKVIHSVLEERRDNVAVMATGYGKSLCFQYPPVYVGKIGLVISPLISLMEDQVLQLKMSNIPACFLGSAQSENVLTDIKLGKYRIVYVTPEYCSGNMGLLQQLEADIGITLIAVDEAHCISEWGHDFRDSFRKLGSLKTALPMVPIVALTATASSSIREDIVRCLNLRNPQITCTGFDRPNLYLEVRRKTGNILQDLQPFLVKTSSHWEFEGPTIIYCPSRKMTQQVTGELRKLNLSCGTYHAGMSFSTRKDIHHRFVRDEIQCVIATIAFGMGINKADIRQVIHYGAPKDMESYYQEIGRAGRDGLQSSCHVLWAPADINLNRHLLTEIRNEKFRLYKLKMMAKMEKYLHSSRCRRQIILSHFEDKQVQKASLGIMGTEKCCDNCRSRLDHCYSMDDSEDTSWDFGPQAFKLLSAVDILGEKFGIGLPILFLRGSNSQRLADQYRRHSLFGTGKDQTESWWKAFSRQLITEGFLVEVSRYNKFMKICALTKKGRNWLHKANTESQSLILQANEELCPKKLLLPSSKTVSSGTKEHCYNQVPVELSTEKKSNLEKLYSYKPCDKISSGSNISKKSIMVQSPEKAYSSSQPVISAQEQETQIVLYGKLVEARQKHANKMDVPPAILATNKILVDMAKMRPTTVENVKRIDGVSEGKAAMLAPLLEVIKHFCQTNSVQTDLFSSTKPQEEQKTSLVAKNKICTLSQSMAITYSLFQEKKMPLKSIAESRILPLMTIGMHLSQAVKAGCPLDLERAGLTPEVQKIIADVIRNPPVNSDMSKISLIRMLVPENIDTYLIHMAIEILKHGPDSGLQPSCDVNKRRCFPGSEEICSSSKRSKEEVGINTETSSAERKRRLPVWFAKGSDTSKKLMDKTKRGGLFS

SMILES: CCc1c(N2CCN(C(=O)c3ncnc(C)c3O)CC2)c(=O)n2nc(-c3cc4c(s3)COC4)nc2n1CC(=O)Nc1ccc(C(F)(F)F)cc1Cl [P7]
- IC50 [1]: 0.0014 µM
- inhibitory activity on SW48 cells ([2]; 39 nM): high inhibitory activity
- IC50 [2]: 0.039 µM
- inhibition at 38.15 pM [2, 5]: 6.64%
- inhibition at 38.15 pM [2, 6]: 2.01%
- inhibition at 38.15 pM [2, 7]: 11.3%
- inhibition at 0.000152588 µM [2, 5]: 3.66%
- inhibition at 0.000152588 µM [2, 6]: -6.35%
- inhibition at 0.000152588 µM [2, 7]: 13.7%
- inhibition at 0.000610352 µM [2, 5]: 4.19%
- inhibition at 0.000610352 µM [2, 6]: -2.7%
- inhibition at 0.000610352 µM [2, 7]: 11.1%
- inhibition at 0.00976562 µM [2, 5]: 2.23%
- inhibition at 0.00976562 µM [2, 6]: -0.534%
- inhibition at 0.00976562 µM [2, 7]: 4.98%
- inhibition at 0.0390625 µM [2, 5]: 54.8%
- inhibition at 0.0390625 µM [2, 6]: 56%
- inhibition at 0.0390625 µM [2, 7]: 53.6%
- inhibition at 0.15625 µM [2, 5]: 99%
- inhibition at 0.15625 µM [2, 6]: 98.8%
- inhibition at 0.15625 µM [2, 7]: 99.2%
- inhibition at 0.625 µM [2, 5]: 100%
- inhibition at 0.625 µM [2, 6]: 100%
- inhibition at 0.625 µM [2, 7]: 100%
- inhibition at […] [2, 5]: 101%
- inhibition at […] [2, 6]: 101%
- inhibition at 10 µM [2, 5]: 101%
- inhibition at 10 µM [2, 6]: 101%
- inhibition at 10 µM [2, 7]: 101%
- IC50 [3]: > 10 µM
- TGI ([4]; 20 mg/kg): 82%
- Tumor Volume D 1 ([4]; 20 mg/kg): 158 mm^3
- Tumor volume D 21 ([4]; 20 mg/kg): 491 mm^3
- TGI ([4]; 50 mg/kg): 105%
- Tumor Volume D 1 ([4]; 50 mg/kg): 158 mm^3
- Tumor volume D 21 ([4]; 50 mg/kg): 71 mm^3
- TGI ([4]; 120 mg/kg): 105%
- Tumor Volume D 1 ([4]; 120 mg/kg): 174 mm^3
- Tumor volume D 21 ([4]; 120 mg/kg): 24 mm^3

SMILES: CCc1c(N2CCN(C(=O)c3ncnc(C)c3O)CC2)c(=O)n2nc(-c3cc4c(s3)COC4)nc2n1CC(=O)Nc1ccc(Br)cc1Cl [P24]
- IC50 [1]: 0.0011 µM
- IC50 [2]: 0.039 µM
- inhibition at 38.15 pM [2, 5]: -4.41%
- inhibition at 38.15 pM [2, 6]: -3.47%
- inhibition at 38.15 pM [2, 7]: -5.36%
- inhibition at 0.000152588 µM [2, 5]: -3.37%
- inhibition at 0.000152588 µM [2, 6]: -6.51%
- inhibition at 0.000152588 µM [2, 7]: -0.227%
- inhibition at 0.000610352 µM [2, 5]: -6.66%
- inhibition at 0.000610352 µM [2, 6]: -6.64%
- inhibition at 0.000610352 µM [2, 7]: -6.68%
- inhibition at 0.00244141 µM [2, 5]: -5.26%
- inhibition at 0.00244141 µM [2, 6]: -4.87%
- inhibition at 0.00244141 µM [2, 7]: -5.64%
- inhibition at 0.00976562 µM [2, 5]: -8.31%
- inhibition at 0.00976562 µM [2, 6]: -8.85%
- inhibition at 0.00976562 µM [2, 7]: -7.77%
- inhibition at 0.0390625 µM [2, 5]: 43.7%
- inhibition at 0.0390625 µM [2, 6]: 40.3%
- inhibition at 0.0390625 µM [2, 7]: 47.1%
- inhibition at 0.15625 µM [2, 5]: 98.7%
- inhibition at 0.15625 µM [2, 6]: 98.6%
- inhibition at 0.15625 µM [2, 7]: 98.8%
- inhibition at 0.625 µM [2, 5]: 97.4%
- inhibition at 0.625 µM [2, 6]: 97.6%
- inhibition at 0.625 µM [2, 7]: 97.2%
- inhibition at […] [2, 5]: 97.6%
- inhibition at […] [2, 6]: 96.9%
- inhibition at […] [2, 7]: 98.3%
- inhibition at 10 µM [2, 5]: 97.3%
- inhibition at 10 µM [2, 6]: 97.4%
- inhibition at 10 µM [2, 7]: 97.3%
- IC50 [3]: > 10 µM
- TGI ([4]; 50 mg/kg): 105%
- Tumor Volume D 1 ([4]; 50 mg/kg): 161 mm^3
- Tumor volume D 21 ([4]; 50 mg/kg): 72 mm^3
